Assay results taken from patent US20080269174A1 (priority 2005, published 2008).
Several values for one entry are separate records, joined by “and”; a condition that tells them apart may be missing. Identical values can stand only once. Like-named read-outs stand apart in the source and are kept apart here.

Key:
Assay in all cases: microbe, parasite or virus in culture
Assay type in all cases: cell-based
Ustilago nuda = tested on: Ustilago nuda
Pyrenophora graminea = settings: for % activity observed: 72 hrs
Pythium ultimum = tested on: Pythium ultimum
Rhizoctonia solani = settings: 72 h, read-out: % activity observed
Fusarium graminearum = settings: for % activity observed: 48 hrs
Gaeumannomyces graminis = settings: for % activity observed: 72 hrs
Monographella nivalis = settings: for % activity observed: 72 hrs
[1] = Ustilago nuda, 48 h, read-out: % activity observed
[2] = Pyrenophora graminea, 72 h, read-out: % activity observed
[3] = Globisporangium ultimum, 48 h, read-out: % activity observed
[4] = Fusarium graminearum, 48 h, read-out: % activity observed, 10 ppm applied alone
[5] = Gaeumannomyces graminis, 72 h, read-out: % activity observed
[6] = Monographella nivalis, 72 h, read-out: % activity observed

CC1COC(Cn2cncn2)(c2ccc(Oc3ccc(Cl)cc3)cc2Cl)O1 (stereo not shown) [Difenconazole, Difenoconazole]
inhibition at 0.014 ppm (Ustilago nuda; [1]): 4% | inhibition at 0.041 ppm (Ustilago nuda; [1]): 0% | inhibition at 0.123 ppm (Ustilago nuda; [1]): 0% | inhibition at 0.37 ppm (Ustilago nuda; [1]): 0% | inhibition at 1.111 ppm (Ustilago nuda; [1]): 0% | inhibition at 3.333 ppm (Ustilago nuda; [1]): 0% | inhibition at 10 ppm (Ustilago nuda; [1]): 60% | inhibition at 0.014 ppm (Pyrenophora graminea; [2]): 20% | inhibition at 0.041 ppm (Pyrenophora graminea; [2]): 29% | inhibition at 0.123 ppm (Pyrenophora graminea; [2]): 41% | inhibition at 0.37 ppm (Pyrenophora graminea; [2]): 70% | inhibition at 1.111 ppm (Pyrenophora graminea; [2]): 86% | inhibition at 3.333 ppm (Pyrenophora graminea; [2]): 87% | inhibition at 10 ppm (Pyrenophora graminea; [2]): 86% | inhibition at 0.014 ppm (Pythium ultimum; [3]): 5% | inhibition at 0.041 ppm (Pythium ultimum; [3]): 0% | inhibition at 0.123 ppm (Pythium ultimum; [3]): 0% | inhibition at 0.37 ppm (Pythium ultimum; [3]): 0% | inhibition at 1.111 ppm (Pythium ultimum; [3]): 0% | inhibition at 3.333 ppm (Pythium ultimum; [3]): 0% | inhibition at 10 ppm (Pythium ultimum; [3]): 7% | inhibition at 0.014 ppm (Rhizoctonia solani): 5% | inhibition at 0.041 ppm (Rhizoctonia solani): 0% | inhibition at 0.123 ppm (Rhizoctonia solani): 27% | inhibition at 0.37 ppm (Rhizoctonia solani): 30% | inhibition at 1.111 ppm (Rhizoctonia solani): 84% | inhibition at 3.333 ppm (Rhizoctonia solani): 88% | inhibition at 10 ppm (Rhizoctonia solani): 84% | inhibition at 0.014 ppm (Fusarium graminearum; Fusarium graminearum, 48 h, read-out: % activity observed, 0.014 ppm applied alone): 8% | inhibition at 0.041 ppm (Fusarium graminearum; Fusarium graminearum, 48 h, read-out: % activity observed, 0.041 ppm applied alone): 6% | inhibition at 0.123 ppm (Fusarium graminearum; Fusarium graminearum, 48 h, read-out: % activity observed, 0.123 ppm applied alone): 14% | inhibition at 0.37037 ppm (Fusarium graminearum; Fusarium graminearum, 48 h, read-out: % activity observed, 0.3703704 ppm applied alone): 16% | inhibition at 1.11111 ppm (Fusarium graminearum; Fusarium graminearum, 48 h, read-out: % activity observed, 1.1111111 ppm applied alone): 34% | inhibition at 3.33333 ppm (Fusarium graminearum; Fusarium graminearum, 48 h, read-out: % activity observed, 3.3333333 ppm applied alone): 73% | inhibition at 10 ppm (Fusarium graminearum; [4]): 92%

COCC(=O)N(c1c(C)cccc1C)[C@H](C)C(=O)OC [Mefenoxam]
% activity observed (Gaeumannomyces graminis): 0% and 4% and 3% | % activity observed (Monographella nivalis): 0% | % activity observed (Ustilago nuda; 48 hrs): 0% and 2% and 5% and 8% | % activity observed (Pyrenophora graminea): 0% and 5% | % activity observed (Fusarium graminearum; 0.014 ppm applied alone): 6% | % activity observed (Fusarium graminearum; 0.041 ppm applied alone): 0% | % activity observed (Fusarium graminearum; 0.123 ppm applied alone): 0% | % activity observed (Fusarium graminearum; 0.370 ppm applied alone): 0% | % activity observed (Fusarium graminearum; 1.111 ppm applied alone): 0% | % activity observed (Fusarium graminearum; 3.333 ppm applied alone): 2% | % activity observed (Fusarium graminearum; 10.000 ppm applied alone): 1%

CC(C)(C)C(O)(CCc1ccc(Cl)cc1)Cn1cncn1 (stereo not shown) [Tebuconazole]
% activity observed (Gaeumannomyces graminis): 100% | inhibition at 0.041 ppm (Gaeumannomyces graminis; [5]): 16% | inhibition at 0.123 ppm (Gaeumannomyces graminis; [5]): 64% | inhibition at 0.37 ppm (Gaeumannomyces graminis; [5]): 97% | inhibition at 1.111 ppm (Gaeumannomyces graminis; [5]): 98% | inhibition at 3.333 ppm (Gaeumannomyces graminis; [5]): 98% | inhibition at 10 ppm (Gaeumannomyces graminis; [5]): 96% | % activity observed (Monographella nivalis): 6% | inhibition at 0.014 ppm (Monographella nivalis; [6]): 9% | inhibition at 0.041 ppm (Monographella nivalis; [6]): 3% | inhibition at 1.111 ppm (Monographella nivalis; [6]): 0% | inhibition at 3.333 ppm (Monographella nivalis; [6]): 62% | inhibition at 10 ppm (Monographella nivalis; [6]): 94% | inhibition at 0.014 ppm (Ustilago nuda; [1]): 0% | inhibition at 0.041 ppm (Ustilago nuda; [1]): 0% | inhibition at 10 ppm (Ustilago nuda; [1]): 26% | % activity observed (Pyrenophora graminea): 54% and 89% and 74% | inhibition at 0.041 ppm (Pyrenophora graminea; [2]): 17% | inhibition at 0.123 ppm (Pyrenophora graminea; [2]): 48% | inhibition at 0.37 ppm (Pyrenophora graminea; [2]): 57% | inhibition at 1.111 ppm (Pyrenophora graminea; [2]): 77% | inhibition at 3.333 ppm (Pyrenophora graminea; [2]): 87% | inhibition at 10 ppm (Pyrenophora graminea; [2]): 94% | % activity observed (Pythium ultimum; 48 hrs): 2% and 4% and 0% | inhibition at 0.123 ppm (Pythium ultimum; [3]): 1% | inhibition at 10 ppm (Pythium ultimum; [3]): 22% | inhibition at 3.333 ppm (Rhizoctonia solani): 96% | inhibition at 10 ppm (Rhizoctonia solani): 100% | % activity observed (Fusarium graminearum; 0.014 ppm applied alone): 3% and 1% | % activity observed (Fusarium graminearum; 0.041 ppm applied alone): 11% and 5% and 9% | % activity observed (Fusarium graminearum; 0.370 ppm applied alone): 34% and 39% | % activity observed (Fusarium graminearum; 1.111 ppm applied alone): 62% and 55% | % activity observed (Fusarium graminearum; 3.333 ppm applied alone): 88% | % activity observed (Fusarium graminearum; 10.000 ppm applied alone): 95% and 97% | inhibition at 0.0137 ppm (Fusarium graminearum; Fusarium graminearum, 48 h, read-out: % activity observed, 0.0137 ppm applied alone): 0% | inhibition at 0.0412 ppm (Fusarium graminearum; Fusarium graminearum, 48 h, read-out: % activity observed, 0.0412 ppm applied alone): 7% | inhibition at 0.1235 ppm (Fusarium graminearum; Fusarium graminearum, 48 h, read-out: % activity observed, 0.1235 ppm applied alone): 16% | inhibition at 0.37 ppm (Fusarium graminearum; Fusarium graminearum, 48 h, read-out: % activity observed, 0.370 ppm applied alone): 37% | inhibition at 0.3704 ppm (Fusarium graminearum; Fusarium graminearum, 48 h, read-out: % activity observed, 0.3704 ppm applied alone): 33% | inhibition at 1.111 ppm (Fusarium graminearum; Fusarium graminearum, 48 h, read-out: % activity observed, 1.111 ppm applied alone): 50% | inhibition at 1.1111 ppm (Fusarium graminearum; Fusarium graminearum, 48 h, read-out: % activity observed, 1.1111 ppm applied alone): 66% | inhibition at 3.333 ppm (Fusarium graminearum; Fusarium graminearum, 48 h, read-out: % activity observed, 3.333 ppm applied alone): 98% | inhibition at 3.3333 ppm (Fusarium graminearum; Fusarium graminearum, 48 h, read-out: % activity observed, 3.3333 ppm applied alone): 94% | inhibition at 10 ppm (Fusarium graminearum; [4]): 94% | inhibition at 10 ppm (Fusarium graminearum; Fusarium graminearum, 48 h, read-out: % activity observed, 10.000 ppm applied alone): 100%
